Results: PMC6220272, “Scaffold-Hopping from Synthetic Drugs by Holistic Molecular Representation” (Scientific Reports, 2018)

How the values were obtained:
Type in all cases: cell-based
[1] = biological target: T1, human RXRγ ligand binding domain (Gal4 hybrid receptor) (Homo sapiens, UniProt P48443); assay: Gal4 hybrid reporter gene assay RXRγ; settings: HEK293T cells, n ≥ 4, read-out: RXRγ EC50 ± SEM
T1 construct: expressed in transfected cells; host or cells: HEK293T
T1 sequence (P48443 231-459 limits assumed): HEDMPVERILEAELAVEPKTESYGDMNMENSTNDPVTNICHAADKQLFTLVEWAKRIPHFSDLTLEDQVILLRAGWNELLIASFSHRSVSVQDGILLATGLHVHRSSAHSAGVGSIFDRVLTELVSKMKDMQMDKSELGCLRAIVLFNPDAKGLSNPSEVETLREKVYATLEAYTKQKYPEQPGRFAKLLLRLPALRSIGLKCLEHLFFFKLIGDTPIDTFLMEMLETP
Procedure: The 20 top-ranked synthetic compounds were selected and tested in vitro for their modulatory activity on RXR (Supplementary Table 1). Compounds were tested in specific hybrid reporter gene assays for RXRα, RXRβ and RXRγ modulation[39]–[41]. These assays rely on a constitutively expressed hybrid receptor composed of the respective human RXR ligand binding domain and the DNA binding domain of the Gal4 receptor from yeast. A Gal4 responsive firefly luciferase was used as reporter gene and constitutively expressed renilla luciferase served as internal control for transfection efficiency and test compound toxicity. All selected compounds were tested at 50 µM concentration on RXRα and for active compounds (Supplementary Fig. 1), dose response curves were recorded on all three RXR subtypes.
(§1) The Gal4 hybrid reporter gene assays were conducted as reported previously[39]–[41]. pFA-CMV-based constructs comprising the ligand binding domain of the human nuclear receptor in question were used as expression plasmids for the chimera receptors. pFR-Luc (Stratagene) served as reporter plasmid and pRL-SV40 (Promega) for normalization of transfection efficiency and cell growth. The assays were conducted in 96-well format in HEK293T cells that were cultured as described previously[39]–[41]. Transient transfection was carried out using Lipofectamine LTX reagent (Invitrogen) according to the manufacturer’s protocol. After transfection and incubation with test compounds (12–14 h), cells were assayed for luciferase activity using Dual-Glo™ Luciferase Assay System (Promega) according to the manufacturer’s protocol. Luminescence was measured with an Infinite M200 luminometer (Tecan Deutschland GmbH). All hybrid assays were validated with reference agonists (PPARα: GW7647; PPARγ: pioglitazone; PPARδ: L165,041; LXRα/β: T0901317; FXR: GW4064; RXRs: bexarotene; RARs: tretinoin; VDR: calcitriol; CAR: CITCO; PXR: SR12813) which yielded EC50 values in agreement with literature. The assays were conducted in duplicates with at least two independent repeats and for active compounds repeated without hybrid receptor coding DNA for every test compound at the highest tested concentration to exclude unspecific effects.
Supplementary Figure 2. Dose-response curves for RXRα activation. Compounds were tested in specific hybrid reporter gene assays for RXRα, RXRβ and RXRγ modulation.^1–3 These assays rely on a constitutively expressed hybrid receptor composed of the respective human RXR ligand binding domain and the DNA binding domain of the Gal4 receptor from yeast. A Gal4 responsive firefly luciferase was used as reporter gene and constitutively expressed renilla luciferase served as internal control for transfection efficiency and test compound toxicity. […]

[2] = biological target: T2, farnesoid X receptor [FXR] (Homo sapiens, UniProt Q96RI1); assay: Gal4 hybrid reporter gene assay FXR (selectivity profiling)
T2 construct: expressed in transfected cells; host or cells: HEK293T
T2 sequence (Q96RI1 262-486 limits assumed): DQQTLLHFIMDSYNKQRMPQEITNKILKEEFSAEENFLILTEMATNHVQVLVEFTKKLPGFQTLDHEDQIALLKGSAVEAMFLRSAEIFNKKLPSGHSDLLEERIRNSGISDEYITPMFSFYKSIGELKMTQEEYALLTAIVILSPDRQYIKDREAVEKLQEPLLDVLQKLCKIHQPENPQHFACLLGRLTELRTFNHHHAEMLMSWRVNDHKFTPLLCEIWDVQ
Procedure: (§2) Moreover, 7 was characterized for its ability to modulate RXR target gene expression under more physiological conditions. Hepatoma cells (HepG2) were incubated with 7 (30 µM) or reference RXR agonist bexarotene (9, 1 µM) for eight hours and mRNA expression of RXR regulated genes ATP-binding cassette transporter A1 (ABCA1), angiopoietin like protein 4 (ANGPTL4) and apolipoprotein E (ApoE) was analysed by quantitative real-time PCR.
as §1, with “All hybrid assays were validated with reference agonists (PPARα: GW7647; PPARγ: pioglitazone; PPARδ: L165,041; LXRα/β: T0901317; FXR: GW4064; RXRs: bexarotene; RARs: tretinoin; VDR: calcitriol; CAR: CITCO; PXR: SR12813) which yielded EC50 values in agreement with literature. The assays were conducted in duplicates with at least two independent repeats and for active compounds repeated without hybrid receptor coding DNA for every test compound at the highest tested concentration to exclude unspecific effects.” left out

[3] = biological target: T3, RARβ (Homo sapiens, UniProt P10826); assay: Gal4 hybrid reporter gene assay RARβ (selectivity profiling)
T3 construct: expressed in transfected cells; host or cells: HEK293T
T3 sequence (P10826 183-417 limits assumed): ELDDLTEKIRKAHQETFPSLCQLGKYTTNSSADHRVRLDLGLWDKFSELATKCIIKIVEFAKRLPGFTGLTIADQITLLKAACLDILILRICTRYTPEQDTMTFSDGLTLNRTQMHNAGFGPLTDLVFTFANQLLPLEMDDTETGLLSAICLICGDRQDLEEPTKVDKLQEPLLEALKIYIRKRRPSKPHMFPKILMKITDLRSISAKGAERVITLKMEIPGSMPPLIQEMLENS
Procedure: as §2
as §1, with “All hybrid assays were validated with reference agonists (PPARα: GW7647; PPARγ: pioglitazone; PPARδ: L165,041; LXRα/β: T0901317; FXR: GW4064; RXRs: bexarotene; RARs: tretinoin; VDR: calcitriol; CAR: CITCO; PXR: SR12813) which yielded EC50 values in agreement with literature. The assays were conducted in duplicates with at least two independent repeats and for active compounds repeated without hybrid receptor coding DNA for every test compound at the highest tested concentration to exclude unspecific effects.” left out

[4] = biological target: T4, RARγ (Homo sapiens, UniProt P13631); assay: Gal4 hybrid reporter gene assay RARγ (selectivity profiling)
T4 construct: expressed in transfected cells; host or cells: HEK293T
T4 sequence (P13631 185-419 limits assumed): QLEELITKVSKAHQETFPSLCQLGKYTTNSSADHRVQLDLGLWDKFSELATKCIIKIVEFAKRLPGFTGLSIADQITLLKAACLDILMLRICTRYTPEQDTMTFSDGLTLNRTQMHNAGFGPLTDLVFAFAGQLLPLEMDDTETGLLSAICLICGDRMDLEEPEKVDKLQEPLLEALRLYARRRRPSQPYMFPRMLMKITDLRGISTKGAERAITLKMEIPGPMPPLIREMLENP
Procedure: as §2
as §1, with “All hybrid assays were validated with reference agonists (PPARα: GW7647; PPARγ: pioglitazone; PPARδ: L165,041; LXRα/β: T0901317; FXR: GW4064; RXRs: bexarotene; RARs: tretinoin; VDR: calcitriol; CAR: CITCO; PXR: SR12813) which yielded EC50 values in agreement with literature. The assays were conducted in duplicates with at least two independent repeats and for active compounds repeated without hybrid receptor coding DNA for every test compound at the highest tested concentration to exclude unspecific effects.” left out

[5] = system: ATP-binding cassette transporter A1 (ABCA1) mRNA in HepG2 cells; assay: Target gene quantification (quantitative real-time PCR), ABCA1; settings: HepG2, 7 at 30 µM versus bexarotene at 1 µM, 8 h, qRT-PCR
Procedure: as §2
(§3) HepG2 cells were incubated with test compound 7 (30 µM) or bexarotene (1 µM) as positive control each dissolved in 0.1% DMSO or 0.1% DMSO alone as untreated control for 8 h, harvested, washed with cold phosphate buffered saline (PBS) and then directly used for RNA extraction with the Total RNA Mini Kit (R6834-02, Omega Bio-Tek, Inc., Norcross, GA, USA). 2 µg RNA were reverse-transcribed into cDNA using the High-Capacity cDNA Reverse Transcription Kit (4368814, Thermo Fischer Scientific, Inc.). RXR target gene expression was evaluated by quantitative real time PCR analysis with a StepOnePlus™ System (Life Technologies, Carlsbad, CA, USA) using PowerSYBRGreen (Life Technologies; 12.5 µl per well) and the primers reported in Supplementary Table 4[58]. […] The expression was quantified by the comparative ∆∆Ct method. […] Results are expressed as mean ± standard error of the mean (SEM) relative mRNA expression compared to DMSO (0.1%) control which was set as 1.

[6] = system: apolipoprotein E (ApoE) mRNA in HepG2 cells; assay: Target gene quantification (quantitative real-time PCR), ApoE; settings: HepG2, 7 at 30 µM versus bexarotene at 1 µM, 8 h, qRT-PCR
Procedure: as §2, §3

## CC(C)(C)c1cc(/C=N/NC(=O)c2ccc(N)cc2)cc(C(C)(C)C)c1 [Compound 7]
[1]
  EC50: 28.2 ± 0.1 µM
[2]
  activity on FXR: no activity
[3]
  activity on RARβ: no activity
[4]
  activity on RARγ: no activity
[5]
  induction of ABCA1 mRNA expression: comparable efficacy as RXR agonist bexarotene
[6]
  induction of ApoE mRNA expression: comparable efficacy as RXR agonist bexarotene
